{
  "source": "patent US20260248791A1",
  "about": "“METHODS FOR TREATING DERMATOMYOSITIS WITH BREPOCITINIB” (priority 2023, published 2026)",
  "key": {"Broad off-target panel": {"assay": "Broad off-target panel", "details": "functional assays, ligand binding, enzyme activity"}, "[1]": {"biological_target": "breast cancer resistance protein (BCRP) (Homo sapiens, UniProt Q9UNQ0)", "sequence (Q9UNQ0 whole entry)": "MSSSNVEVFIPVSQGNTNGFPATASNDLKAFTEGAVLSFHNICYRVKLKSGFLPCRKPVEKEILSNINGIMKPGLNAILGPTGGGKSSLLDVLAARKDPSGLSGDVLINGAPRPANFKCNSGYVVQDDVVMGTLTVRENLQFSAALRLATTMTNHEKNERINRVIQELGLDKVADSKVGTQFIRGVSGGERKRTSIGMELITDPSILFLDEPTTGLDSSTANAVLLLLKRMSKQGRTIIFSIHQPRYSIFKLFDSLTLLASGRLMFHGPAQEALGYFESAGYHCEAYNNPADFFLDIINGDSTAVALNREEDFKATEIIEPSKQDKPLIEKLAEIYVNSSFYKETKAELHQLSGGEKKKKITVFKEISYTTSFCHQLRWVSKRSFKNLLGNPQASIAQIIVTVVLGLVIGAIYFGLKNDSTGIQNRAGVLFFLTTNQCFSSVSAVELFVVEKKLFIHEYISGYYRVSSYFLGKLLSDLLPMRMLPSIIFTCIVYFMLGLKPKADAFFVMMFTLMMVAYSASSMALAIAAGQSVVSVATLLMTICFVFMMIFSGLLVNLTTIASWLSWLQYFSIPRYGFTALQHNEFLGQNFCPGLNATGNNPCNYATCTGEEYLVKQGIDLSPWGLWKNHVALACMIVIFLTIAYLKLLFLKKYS", "assay": "In vitro transporter inhibition, BCRP"}, "[2]": {"assay": "In vitro profiling for metabolic drug-drug interactions", "details": "direct inhibition and induction mechanisms"}, "[3]": {"biological_target": "organic cation transporter (OCT) 1 (Homo sapiens, UniProt O15245)", "sequence (O15245 whole entry)": "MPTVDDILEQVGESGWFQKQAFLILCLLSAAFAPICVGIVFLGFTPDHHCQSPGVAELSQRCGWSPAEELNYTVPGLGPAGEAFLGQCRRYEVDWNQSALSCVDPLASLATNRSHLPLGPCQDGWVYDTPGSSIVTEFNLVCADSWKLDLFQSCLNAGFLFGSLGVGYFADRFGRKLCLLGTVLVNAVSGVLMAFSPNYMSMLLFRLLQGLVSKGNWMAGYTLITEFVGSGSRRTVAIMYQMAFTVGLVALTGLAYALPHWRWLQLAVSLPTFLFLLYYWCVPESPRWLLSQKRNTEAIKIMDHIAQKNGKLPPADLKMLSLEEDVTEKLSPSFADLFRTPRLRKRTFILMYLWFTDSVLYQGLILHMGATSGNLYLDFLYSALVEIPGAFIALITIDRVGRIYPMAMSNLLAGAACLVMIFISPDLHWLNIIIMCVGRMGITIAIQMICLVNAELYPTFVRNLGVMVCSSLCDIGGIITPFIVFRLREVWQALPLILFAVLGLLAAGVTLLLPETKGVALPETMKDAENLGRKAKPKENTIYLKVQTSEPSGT", "assay": "In vitro transporter inhibition, OCT1"}, "[4]": {"assay": "Tolerability in clinical studies to date", "assay_type": "in vivo, human", "text": "Brepocitinib is being evaluated in a double-blind, randomized, placebo-controlled Phase 3 study in DM (NCT0543726; VALOR Study). With a planned enrollment of 225 subjects, the VALOR Study is the largest well-controlled trial in DM to date. Adult patients with definite or probable idiopathic inflammatory myopathy (IIM), who meet the subclassification criteria for DM, have both muscle and skin disease involvement (classic DM), and are receiving (or are not responsive to or are intolerant to) corticosteroids and/or immunomodulatory/immunosuppressive therapies are eligible to enroll. The primary endpoint is the total improvement score (TIS) at week 52. The TIS is a composite endpoint based on the following six CSM scores: the Physician Global Disease Activity, the Patient Global Disease Activity, the Health Assessment Questionnaire, MMT-8, Extramuscular Disease Activity, and muscle enzymes. To evaluate the steroid-sparing effect of Brepocitinib, participants using glucocorticoids at baseline must taper to an oral glucocorticoid dose of prednisone≤5 mg/day (or equivalent) by week 36."}, "transgenic (Tg) mice": {"tested_on": "transgenic (Tg) mice", "assay": "6-month carcinogenicity study in Tg mice", "assay_type": "in vivo", "details": "6-month Tg mouse study", "text": "(§1) Immunotoxicity and phototoxicity studies have also been conducted. Carcinogenicity studies in Tg mice (6 month) and rats (2 year) have been completed. […] Brepocitinib-related findings consistent with the mechanism of action (lower thymus weight and cellularity, infection) or not relevant to humans (exacerbation of chronic progressive nephropathy in the kidney) were also observed. Fertility studies in rats have been completed."}, "[5]": {"assay": "Dissolution from immediate-release tablets", "assay_type": "physicochemical", "details": "in 30 minutes; 30 mg tablet, pH 6.8 phosphate buffer, USP Apparatus II, 75 rpm", "experimental": "Dissolution: […] An illustrative dissolution profile for a prototype 30 mg tablet in pH 6.8 phosphate buffer using USP Apparatus II, 75 rpm is shown in FIG. 6. […] The final to-be-marketed product will be tested in all three-pH media for confirmation of rapid dissolution. The to-be-marketed product will be developed at a commercial manufacturing site that is to be decided and will be different from that used to manufacture the current clinical trial material."}, "male rat": {"tested_on": "male rat", "assay": "Fertility study in rats", "assay_type": "in vivo", "details": "55 mg/kg/day", "text": "as §1"}, "cynomolgus monkeys": {"tested_on": "cynomolgus monkeys", "assay": "Chronic oral toxicology study in monkeys", "details": "end of study exposure"}, "[6]": {"details": "human"}, "[7]": {"details": "human, plasma, 2 μM"}, "[8]": {"biological_target": "P-glycoprotein (P-gp; MDR1; ABCB1) (Homo sapiens, UniProt P08183)", "sequence (P08183 whole entry)": "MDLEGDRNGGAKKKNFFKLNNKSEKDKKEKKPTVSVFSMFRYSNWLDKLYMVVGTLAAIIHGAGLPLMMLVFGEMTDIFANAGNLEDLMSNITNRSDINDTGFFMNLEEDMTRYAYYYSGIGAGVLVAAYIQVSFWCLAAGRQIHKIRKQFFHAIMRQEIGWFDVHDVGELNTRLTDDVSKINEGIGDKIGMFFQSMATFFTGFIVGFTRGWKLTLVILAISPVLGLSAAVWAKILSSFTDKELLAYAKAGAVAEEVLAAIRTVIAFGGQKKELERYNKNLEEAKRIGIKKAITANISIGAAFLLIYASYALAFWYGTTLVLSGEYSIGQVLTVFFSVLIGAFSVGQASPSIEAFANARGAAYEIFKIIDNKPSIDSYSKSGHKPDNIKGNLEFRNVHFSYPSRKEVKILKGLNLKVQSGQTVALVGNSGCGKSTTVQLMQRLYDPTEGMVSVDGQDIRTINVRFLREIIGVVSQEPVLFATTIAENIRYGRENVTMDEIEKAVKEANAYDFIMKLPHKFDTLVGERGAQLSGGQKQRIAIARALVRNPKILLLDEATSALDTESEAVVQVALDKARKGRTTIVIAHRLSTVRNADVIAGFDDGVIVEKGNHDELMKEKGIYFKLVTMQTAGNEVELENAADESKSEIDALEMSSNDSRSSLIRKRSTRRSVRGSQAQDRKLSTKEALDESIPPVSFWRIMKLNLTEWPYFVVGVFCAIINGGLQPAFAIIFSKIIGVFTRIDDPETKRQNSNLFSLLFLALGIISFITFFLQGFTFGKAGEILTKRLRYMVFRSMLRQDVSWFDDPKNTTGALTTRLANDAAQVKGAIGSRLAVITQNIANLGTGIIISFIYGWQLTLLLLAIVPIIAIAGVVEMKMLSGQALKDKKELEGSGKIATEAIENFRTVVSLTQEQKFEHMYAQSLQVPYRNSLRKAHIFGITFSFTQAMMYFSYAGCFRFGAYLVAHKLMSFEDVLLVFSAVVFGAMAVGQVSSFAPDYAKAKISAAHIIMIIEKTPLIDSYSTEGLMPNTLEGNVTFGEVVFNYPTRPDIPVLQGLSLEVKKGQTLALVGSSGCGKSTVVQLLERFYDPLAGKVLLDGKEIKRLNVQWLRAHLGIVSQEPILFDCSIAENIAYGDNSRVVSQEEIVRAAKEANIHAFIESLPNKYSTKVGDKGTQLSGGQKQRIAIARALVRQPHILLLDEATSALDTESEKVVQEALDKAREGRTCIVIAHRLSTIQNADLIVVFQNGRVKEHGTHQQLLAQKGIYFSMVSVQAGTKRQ", "assay": "P-glycoprotein substrate status"}, "P-gp": {"biological_target": "P-gp (Homo sapiens, UniProt P08183)", "sequence (P08183 whole entry)": "as above", "assay": "In vitro transporter inhibition, P-gp"}, "rats": {"tested_on": "rats", "assay": "Chronic oral toxicology study in rats", "details": "end of study exposure"}, "IP-10 (CXCL10)": {"tested_on": "IP-10 (CXCL10)", "assay": "IP-10 reduction in clinical studies", "assay_type": "in vivo, human", "details": "dose dependent reductions in clinical studies", "text": "As part of the clinical development program for oral Brepocitinib, a number of Phase 1 and Phase 2 studies have been completed or have a report in preparation. […] The multiple autoimmune diseases for which there is observed clinical efficacy data for Brepocitinib have mechanistic pathway similarities to DM. For example, psoriasis is driven by IL-17, which is downstream of IL-12 and IL-23 signaling via TYK2 and/or JAK1, and alopecia areata is characterized by excessive activity of IFN-γ, a type II interferon which also signals via JAK1. Of note, dose dependent reductions in IP-10 (CXCL10), an IFN-γ inducible gene, have been observed in Brepocitinib clinical studies, separating from placebo at doses ≥10 mg QD. Importantly, in these phase 2 studies, clinical response with Brepocitinib treatment rapidly separates from placebo. For example, in the phase 2 study assessing Brepocitinib's efficacy in psoriatic arthritis, Brepocitinib 30 mg achieved a 52% ACR20 response rate after 4 weeks compared to a 19% response rate in placebo patients."}, "[9]": {"assay": "Dose-response across Phase 2 studies", "assay_type": "in vivo, human", "details": "normalized responder rate vs average daily dose across Phase 2 studies"}},
  "data": [
    {"compound": "Cn1cc(Nc2nccc(N3C[C@H]4CC[C@@H](C3)N4C(=O)[C@@H]3CC3(F)F)n2)cn1", "note": "[Brepocitinib, [(1S)-2,2-difluorocyclo-propyl][(1R,5S)-3-{2-[(1-methyl-1H-pyrazol-4-yl)amino]pyrimidin-4-yl}-3,8-diazabicyclo[3.2.1]oct-8-yl]methanone]", "values": [
      {"measurement": "off-target pharmacology potential", "setting": "Broad off-target panel", "result": "low potential for off-target pharmacology"},
      {"measurement": "In vitro inhibition of BCRP", "setting": "[1]", "result": "inhibition"},
      {"measurement": "potential to be a perpetrator of metabolic drug-drug interactions", "setting": "[2]", "result": "low potential"},
      {"measurement": "In vitro inhibition of OCT1", "setting": "[3]", "result": "inhibition"},
      {"measurement": "tolerability", "setting": "[4]", "result": "generally well-tolerated"},
      {"measurement": "neoplastic findings", "setting": "transgenic (Tg) mice", "result": "No Brepocitinib-related neoplastic findings"},
      {"measurement": "dissolution from immediate-release (IR) tablets", "setting": "[5]", "result": "> 85", "unit": "%"},
      {"measurement": "effects on male rat fertility", "setting": "male rat; highest dose tested", "result": "No adverse effects"},
      {"measurement": "margin to clinical exposures at highest dose tested", "setting": "male rat; male rat fertility", "result": "> 50", "unit": "fold"},
      {"measurement": "AUC exposure margin, NOAEL to clinical exposure of 30 mg QD", "setting": "cynomolgus monkeys", "result": 7.8, "unit": "fold"},
      {"measurement": "dose recovered in urine", "setting": "[6]; in vivo", "result": "≤ 16", "unit": "%"},
      {"measurement": "effect of food (high-fat meal) on absorption", "setting": "[6]; in vivo", "result": "does not have a clinically relevant effect on the extent of absorption"},
      {"measurement": "fraction absorbed", "setting": "[6]; in vivo", "result": "approximately 100%"},
      {"measurement": "increase of AUC(0-∞) and Cmax with dose", "setting": "[6]; in vivo", "result": "approximately dose-proportional"},
      {"measurement": "time to steady state", "setting": "[6]; in vivo", "result": "≤ 8", "unit": "days"},
      {"measurement": "Permeability class according to the BCS criteria", "setting": "[6]; not told, po", "result": "high-permeability compound"},
      {"measurement": "fraction of unbound drug", "setting": "[7]", "result": 0.609},
      {"measurement": "P-gp substrate status", "setting": "[8]", "result": "substrate"},
      {"measurement": "In vitro inhibition of P-gp", "setting": "P-gp", "result": "inhibition"},
      {"measurement": "AUC exposure margin, NOAEL to clinical exposure of 30 mg QD", "setting": "rats", "result": 54, "unit": "fold"},
      {"measurement": "doses at which IP-10 (CXCL10) reduction separates from placebo", "setting": "IP-10 (CXCL10)", "result": "≥ 10", "unit": "mg QD"},
      {"measurement": "radiolabeled dose recovered as unchanged Brepocitinib in the urine", "setting": "human, in vivo", "result": "Approximately 8%"},
      {"measurement": "radiolabeled dose recovered as Brepocitinib metabolites in the urine", "setting": "human, in vivo, po", "result": "Approximately 80%"},
      {"measurement": "Permeability", "setting": "not told", "result": "highly permeable"},
      {"measurement": "dose resulting in 50% maximal response", "setting": "[9]", "result": 15, "unit": "mg QD"}
    ]}
  ]
}
